Laboratory results reported in patent US10800752B2, “Substituted naphtho[2,3-b]furans as water-soluble prodrugs for preventing and/or treating cancer” (BOSTON BIOMEDICAL, INC., priority 2015, dated 2020).

Assays:
[1] = Evaluation of a conversion rate to 2-acetylnaphtho[2,3-b]furan-4,9-dione in CD1 mouse plasma; assay type: in vitro ADME; settings: CD1 mouse plasma, 1 umol/L, 37° C.
Method in brief: (§1)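 Compounds at 1 umol/L were incubated at 37° C in human plasma, CD1 mouse plasma or pH 7.4 phosphate buffer, sampled up to 120 minutes, acid/acetonitrile-deproteinised and analysed by LC-MS (ESI positive). Conversion (%) derived from the peak area ratio of the active form to phenytoin internal standard.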

[2] = Pharmacokinetics test, intravenous administration; settings: for Plasma Compound Concentration: Activated form 1 in plasma, 9.6 mg/kg (i.v.)
Description: For water-soluble prodrugs described in the EXAMPLES, the concentration of 2-acetylnaphtho[2,3-b]furan-4,9-dione (Activated form 1) in plasma was measured. Animal species, an administration method, a method of making standard solutions, and a method of measuring the concentration in plasma are as described below.
Animal: Seven-week-aged male CD1 (ICR) mice were used as an experimental animal.
Administration method: A test substance was weighed, and then dissolved in 50 mmol/L glycine buffered saline (pH 2.0) to produce an administration solution. The body weight of a mouse was measured, and the prepared administration solution was intravenously administered.
Blood collecting method: Heparin was added to a blood-collecting vessel, and blood was collected from a mouse. To the obtained blood, 46% of Citric acid was added in 1% volume. It was then centrifuged to obtain plasma. To the collected plasma, 1 mol/L HCl was added in 10% volume to produce a plasma sample. A sample obtained by adding 10% volume of 1 mol/L HCl to blank plasma was used as a blank sample.
Making of a standard solution: One mg of a test sample was weighed, and dissolved in 10 mL of acetonitrile using a measuring flask to make a standard solution of 100 ug/mL.
Measurement of the concentration in plasma: One hundred ug/mL of the standard solution was diluted in 50% acetonitrile solution to make calibration curve samples of target concentrations. Twenty uL of a blank sample was added to 18 uL of the calibration curve sample to make a plasma calibration curve sample. Eighteen uL of 50% acetonitrile solution was added to 20 uL of the administered plasma sample to make a sample for plasma analysis. One hundred uL of acetonitrile (containing 1% volume of 10 mol/L HCl) containing an internal standard was added to the plasma calibration curve sample and the sample for plasma analysis, respectively. It should be noted that phenytoin was used as the internal standard and its concentration was prepared in 100 nmol/L. 10 uL of each sample was analyzed with LC-MS. A calibration curve was made from a value (peak ratio) of the peak area of a test substance in MS divided by the peak area of the internal standard, and the concentrations of plasma calibration curve samples. The concentration in a sample was calculated from the peak ratio of each sample and the calibration curve.

[3] = Evaluation of a conversion rate to 2-acetylnaphtho[2,3-b]furan-4,9-dione in human plasma; assay type: in vitro ADME; settings: 1 umol/L, 37° C.
Method in brief: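 Compounds at 1 umol/L incubated at 37° C in human plasma, CD1 mouse plasma or pH 7.4 phosphate buffer, sampled up to 120 minutes. After acidified acetonitrile protein removal, parent loss and conversion to 2-acetylnaphtho[2,3-b]furan-4,9-dione measured by LC-MS (ESI positive).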

Solution stability test = assay type: physicochemical; settings: for % Residual ratio: 25 umol/L
Description: For Example 6, Example 11, and Example 22, the stability in each pH was measured. Test compounds at a concentration of 25 umol/L in respective buffer solutions prepared at pH 2.0, 3.0, 5.0, 7.4, and 9.0 were allowed to stand at 25° C. After 0, 3, 6, 9, 12, and 24 hours, they were measured with HPLC.
The buffer solutions used at respective pHs are as described below. pH 2.0: 50 mmol/L glycine buffer solution pH 3.0: 50 mmol/L citrate buffer solution pH 5.0: 50 mmol/L citrate buffer solution pH 7.4: 50 mmol/L phosphate buffer solution pH 9.0: 50 mmol/L glycine buffer solution
The measurement condition of HPLC is as described below.
Column temperature: 40° C.
Mobile phase: A: 0.1% trifluoroacetic acid-containing water

Solubility test = settings: 50 mmol/L glycine buffer solution (pH 2.0), room temperature, 24 hours shaking
Description: A water-soluble prodrug was added into 50 mmol/L glycine buffer solution (pH 2.0). After shaking at room temperature for 24 hours, the mixture was filtered through a membrane filter, and then the filtrate was measured with HPLC.
The measurement condition of HPLC is as described below. HPLC condition column: Acquity UPLC BEH C18, 1.7 um, 50×2.1 mm

[4] = Evaluation of a conversion rate to 2-acetylnaphtho[2,3-b]furan-4,9-dione in pH 7.4 phosphate buffer solution; assay type: physicochemical; settings: 1 umol/L, 37° C.
Method in brief: as §1

CC(=O)c1cc2c(OC(=O)NC[C@H](N)C(=O)O)c3ccccc3c(OC(=O)NC[C@H](N)C(=O)O)c2o1.Cl.Cl [Example 6]
% Measurement value of test compound (decrease rate) ([1]; incubation time 0 min): 100%
% Measurement value of test compound (decrease rate) ([1]; incubation time 5 min): 0%
% Measurement value of test compound (decrease rate) ([1]; incubation time 10 min): 0%
% Measurement value of test compound (decrease rate) ([1]; incubation time 30 min): 0%
% Measurement value of test compound (decrease rate) ([1]; incubation time 60 min): 0%
% Measurement value of test compound (decrease rate) ([1]; incubation time 120 min): 0%
Plasma Compound Concentration ([2]; 0.083 hr, animal 1): 4.95 µmol/L
Plasma Compound Concentration ([2]; 0.083 hr, animal 2): 5.87 µmol/L
Plasma Compound Concentration ([2]; 0.083 hr, animal 3): 5.79 µmol/L
Plasma Compound Concentration ([2]; 0.083 hr, mean): 5.54 µmol/L
Plasma Compound Concentration ([2]; 0.5 hr, animal 1): 1.17 µmol/L
Plasma Compound Concentration ([2]; 0.5 hr, animal 2): 1.07 µmol/L
Plasma Compound Concentration ([2]; 0.5 hr, animal 3): 1.66 µmol/L
Plasma Compound Concentration ([2]; 0.5 hr, mean): 1.30 µmol/L
Plasma Compound Concentration ([2]; 1.0 hr, animal 1): 0.53 µmol/L
Plasma Compound Concentration ([2]; 1.0 hr, animal 2): 0.28 µmol/L
Plasma Compound Concentration ([2]; 1.0 hr, animal 3): 0.38 µmol/L
Plasma Compound Concentration ([2]; 1.0 hr, mean): 0.40 µmol/L
Plasma Compound Concentration ([2]; 2.0 hr, animal 1): 0.25 µmol/L
Plasma Compound Concentration ([2]; 2.0 hr, animal 2): 0.50 µmol/L
Plasma Compound Concentration ([2]; 2.0 hr, animal 3): 0.41 µmol/L
Plasma Compound Concentration ([2]; 2.0 hr, mean): 0.39 µmol/L
production of 2-acetylnaphtho[2,3-b]furan-4,9-dione (Activated form 1) (in words) ([2]; intravenously administered to mice): rapidly produced
% Measurement value of test compound (decrease rate) ([3]; Human plasma, incubation time 120 min): 0%
% Measurement value of test compound (decrease rate) ([3]; human plasma, incubation time 0 min): 100%
% Measurement value of test compound (decrease rate) ([3]; human plasma, incubation time 5 min): 0%
% Measurement value of test compound (decrease rate) ([3]; human plasma, incubation time 10 min): 0%
% Measurement value of test compound (decrease rate) ([3]; human plasma, incubation time 30 min): 0%
% Measurement value of test compound (decrease rate) ([3]; human plasma, incubation time 60 min): 0%
stability in solution (in words) (Solution stability test; pH 2.0, 25° C.): very stable
% Residual ratio (Solution stability test; pH 2.0, 25° C., 0 hr): 100%
% Residual ratio (Solution stability test; pH 2.0, 25° C., 3 hr): 100%
% Residual ratio (Solution stability test; pH 2.0, 25° C., 6 hr): 100%
% Residual ratio (Solution stability test; pH 2.0, 25° C., 9 hr): 100%
% Residual ratio (Solution stability test; pH 2.0, 25° C., 12 hr): 100%
% Residual ratio (Solution stability test; pH 2.0, 25° C., 24 hr): 99.8%
stability in solution (in words) (Solution stability test; pH 3.0, 25° C.): sufficient stability
% Residual ratio (Solution stability test; pH 3.0, 25° C., 0 hr): 100%
% Residual ratio (Solution stability test; pH 3.0, 25° C., 3 hr): 99.0%
% Residual ratio (Solution stability test; pH 3.0, 25° C., 6 hr): 98.2%
% Residual ratio (Solution stability test; pH 3.0, 25° C., 9 hr): 97.5%
% Residual ratio (Solution stability test; pH 3.0, 25° C., 12 hr): 96.6%
% Residual ratio (Solution stability test; pH 3.0, 25° C., 24 hr): 93.6%
% Residual ratio (Solution stability test; pH 5.0, 25° C., 0 hr): 100%
% Residual ratio (Solution stability test; pH 5.0, 25° C., 3 hr): 27.3%
% Residual ratio (Solution stability test; pH 5.0, 25° C., 6 hr): 10.8%
% Residual ratio (Solution stability test; pH 5.0, 25° C., 9 hr): 3.6%
% Residual ratio (Solution stability test; pH 5.0, 25° C., 12 hr): 0%
% Residual ratio (Solution stability test; pH 5.0, 25° C., 24 hr): 0%
% Residual ratio (Solution stability test; pH 7.4, 25° C., 0 hr): 100%
% Residual ratio (Solution stability test; pH 7.4, 25° C., 3 hr): 0%
% Residual ratio (Solution stability test; pH 7.4, 25° C., 6 hr): 0%
% Residual ratio (Solution stability test; pH 7.4, 25° C., 9 hr): 0%
% Residual ratio (Solution stability test; pH 7.4, 25° C., 12 hr): 0%
% Residual ratio (Solution stability test; pH 7.4, 25° C., 24 hr): 0%
% Residual ratio (Solution stability test; pH 9.0, 25° C., 0 hr): 100%
% Residual ratio (Solution stability test; pH 9.0, 25° C., 3 hr): 0%
% Residual ratio (Solution stability test; pH 9.0, 25° C., 6 hr): 0%
% Residual ratio (Solution stability test; pH 9.0, 25° C., 9 hr): 0%
% Residual ratio (Solution stability test; pH 9.0, 25° C., 12 hr): 0%
% Residual ratio (Solution stability test; pH 9.0, 25° C., 24 hr): 0%
Solubility in pH 2.0 buffer solution (Solubility test): 2.8 mg/mL
% Measurement value of test compound (decrease rate) ([4]; Phosphate buffer solution (pH 7.4), incubation time 120 min): 0%
% Measurement value of test compound (decrease rate) ([4]; phosphate buffer solution (pH 7.4), incubation time 0 min): 100%
% Measurement value of test compound (decrease rate) ([4]; phosphate buffer solution (pH 7.4), incubation time 5 min): 0%
% Measurement value of test compound (decrease rate) ([4]; phosphate buffer solution (pH 7.4), incubation time 10 min): 0%
% Measurement value of test compound (decrease rate) ([4]; phosphate buffer solution (pH 7.4), incubation time 30 min): 0%
% Measurement value of test compound (decrease rate) ([4]; phosphate buffer solution (pH 7.4), incubation time 60 min): 0%
